Assay results: ChEMBL document CHEMBL4477229, “Design and Characterization of Superpotent Bivalent Ligands Targeting Oxytocin Receptor Dimers via a Channel-Like Structure” (J Med Chem, 2016)
Positions count from the first letter of the chain named. Calls of active or inactive are those of the source. The calls are words filed in the database; no cut-off is given here. Numbered stars: 1 amine (or outer) side, 2 acyl side, 3 side chain; on linkers, the order of the positions; unused ones are H or OH. Bridge positions count the residues as written; N and C are the ends. Square brackets hold non-standard residues; d marks the D form. Peptide text beside a SMILES is read from it. I, II: the chains in the order shown. Suberoyl = O=C(CCCCCCC(=O)[*:2])[*:1]; Mpa = O=C(O)CCS

What was measured:
[1] = biological target: T1, Oxytocin receptor (Homo sapiens) (UniProt P30559); assay: Agonist activity at human oxytocin receptor expressed in HEK293 cells coexpressing Rluc8-tagged Galphaq, N-terminal GFP-tagged Ggamma2 and Gbeta1 protein incubated for 2 mins by Gq protein activation based BRET assay; format: cell-based; parameters: unit not given here
T1 sequence (whole entry): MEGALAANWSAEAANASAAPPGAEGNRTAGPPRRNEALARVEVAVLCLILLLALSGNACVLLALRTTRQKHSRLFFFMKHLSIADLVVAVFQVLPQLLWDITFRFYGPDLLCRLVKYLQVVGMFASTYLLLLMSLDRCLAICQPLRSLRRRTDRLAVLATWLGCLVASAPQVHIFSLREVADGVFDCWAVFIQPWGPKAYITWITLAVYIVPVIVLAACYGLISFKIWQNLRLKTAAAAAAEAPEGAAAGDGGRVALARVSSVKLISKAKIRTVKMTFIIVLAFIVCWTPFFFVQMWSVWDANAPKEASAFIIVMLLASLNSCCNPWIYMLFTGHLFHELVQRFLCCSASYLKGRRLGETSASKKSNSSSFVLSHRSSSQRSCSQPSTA

Oxytocin receptor [2] = biological target: T2, Oxytocin receptor (Homo sapiens, UniProt P30559); assay: Agonist activity at human oxytocin receptor high affinity site expressed in HEK293 cells coexpressing Rluc8-tagged Galphaq, N-terminal GFP-tagged Ggamma2 and Gbeta1 protein incubated for 2 mins by Gq protein activation based BRET assay; format: cell-based
T2 sequence (P30559 whole entry): T1 sequence (whole entry)

Oxytocin receptor [3] = biological target: T2, Oxytocin receptor; assay: Agonist activity at human oxytocin receptor low affinity site expressed in HEK293 cells coexpressing Rluc8-tagged Galphaq, N-terminal GFP-tagged Ggamma2 and Gbeta1 protein incubated for 2 mins by Gq protein activation based BRET assay; format: cell-based
[4] = biological target: T1, Oxytocin receptor (Homo sapiens); assay: Displacement of [125I]-OVTA from human oxytocin receptor expressed in COS7 cell membrane; format: cell membranes
[5] = system: T3, Oxytocin receptor (Homo sapiens), P30559 [C47A]; assay: (§1) Agonist activity at human oxytocin receptor C47A mutant expressed in HEK293 cells coexpressing Rluc8-tagged Galphaq, N-terminal GFP-tagged Ggamma2 and Gbeta1 protein incubated for 2 mins by Gq protein activation based BRET assay; format: cell-based; parameters: unit not given here
T3 sequence (whole entry): T1 sequence (whole entry) with C47A

Oxytocin receptor [6] = biological target: Oxytocin receptor (Homo sapiens, UniProt P30559, C47A); assay: as §1; format: cell-based
Oxytocin receptor (Homo sapiens, UniProt P30559, C47A), sequence (P30559 whole entry C47A): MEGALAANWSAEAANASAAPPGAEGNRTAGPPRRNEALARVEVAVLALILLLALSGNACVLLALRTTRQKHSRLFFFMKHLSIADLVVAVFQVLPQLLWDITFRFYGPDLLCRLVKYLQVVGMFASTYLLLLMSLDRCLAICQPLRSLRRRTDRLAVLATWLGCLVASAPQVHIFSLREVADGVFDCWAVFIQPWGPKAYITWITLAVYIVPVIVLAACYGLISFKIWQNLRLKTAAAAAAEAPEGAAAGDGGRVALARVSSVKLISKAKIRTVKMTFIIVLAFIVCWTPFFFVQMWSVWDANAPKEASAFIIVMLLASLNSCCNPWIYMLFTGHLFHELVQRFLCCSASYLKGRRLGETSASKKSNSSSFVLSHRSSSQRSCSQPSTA

[7] = biological target: T1, Oxytocin receptor (Homo sapiens); assay: Ratio of EC50 for human oxytocin receptor high affinity site expressed in HEK293 cells coexpressing Rluc8-tagged Galphaq, N-terminal GFP-tagged Ggamma2 and Gbeta1 protein to Ki for human oxytocin receptor high affinity site expressed in COS7 cell membrane; format: cell-based
[8] = biological target: T1, Oxytocin receptor (Homo sapiens); assay: Ratio of EC50 for human oxytocin receptor low affinity site expressed in HEK293 cells coexpressing Rluc8-tagged Galphaq, N-terminal GFP-tagged Ggamma2 and Gbeta1 protein to Ki for human oxytocin receptor low affinity site expressed in COS7 cell membrane; format: cell-based
[9] = system: T4, Oxytocin receptor (Homo sapiens), P30559 [V43A,C47A]; assay: (§2) Agonist activity at human oxytocin receptor V43A/C47A double mutant expressed in HEK293 cells coexpressing Rluc8-tagged Galphaq, N-terminal GFP-tagged Ggamma2 and Gbeta1 protein incubated for 2 mins by Gq protein activation based BRET assay; format: cell-based; parameters: unit not given here
T4 sequence (whole entry): T1 sequence (whole entry) with V43A, C47A

Oxytocin receptor [10] = biological target: Oxytocin receptor (Homo sapiens, UniProt P30559, C47A/V43A); assay: as §2; format: cell-based
Oxytocin receptor (Homo sapiens, UniProt P30559, C47A/V43A), sequence (P30559 whole entry V43A/C47A): as the sequence (P30559 whole entry C47A) above, with V43A counted along it

[11] = biological target: T1, Oxytocin receptor (Homo sapiens); assay: (§3) Agonist activity at human oxytocin receptor expressed in HEK293 cells coexpressing Rluc8-tagged Galphaq, N-terminal GFP-tagged Ggamma2 and Gbeta1 protein incubated for 2 mins in presence of TMH1-TAT peptide by Gq protein activation based BRET assay; format: cell-based; parameters: unit not given here
Oxytocin receptor [12] = biological target: T2, Oxytocin receptor; assay: as §3; format: cell-based
[13] = biological target: T1, Oxytocin receptor (Homo sapiens); assay: Agonist activity at human oxytocin receptor expressed in HEK293 cells coexpressing Rluc8-tagged Galphaq, N-terminal GFP-tagged Ggamma2 and Gbeta1 protein incubated for 2 mins in presence of TMH5-TAT peptide by Gq protein activation based BRET assay; format: cell-based; parameters: unit not given here
Mus musculus [14] = assay: Effect on social behavior in OXTR+/- DBA/2J mouse assessed as increase in time spent exploring stranger mouse over time spent exploring empty cage at 0.005 ng/mouse, icv measured for 10 mins by three chamber method; format: functional, organism-based
Mus musculus [15] = species: Mus musculus; assay: Potency index, ratio of oxytocin dose to compound dose for OXTR+/- DBA/2J mouse assessed as increase in time spent exploring stranger mouse over time spent exploring empty cage; format: functional
Danio rerio [16] = assay: Effect on social behavior in zebra fish assessed as increase in time spent swimming parallel to nacre mutant fish over time spent shoaling close to wild type fish at 0.2 ng/kg, im; format: functional, organism-based
Danio rerio [17] = species: Danio rerio; assay: Potency index, ratio of isotocin dose to compound dose for effect on shoaling behavior in zebra fish; format: functional
Oxytocin receptor [18] = biological target: T2, Oxytocin receptor; assay: Agonist activity at human oxytocin receptor high affinity site expressed in HEK293 cells coexpressing Rluc8-tagged Galphaq, N-terminal GFP-tagged Ggamma2 and Gbeta1 protein incubated for 2 mins in presence of TMH5-TAT peptide by Gq protein activation based BRET assay; format: cell-based
Oxytocin receptor [19] = biological target: T2, Oxytocin receptor; assay: Agonist activity at human oxytocin receptor low affinity site expressed in HEK293 cells coexpressing Rluc8-tagged Galphaq, N-terminal GFP-tagged Ggamma2 and Gbeta1 protein incubated for 2 mins in presence of TMH5-TAT peptide by Gq protein activation based BRET assay; format: cell-based

Q: Which results are given for `CC[C@H](C)[C@@H]1NC(=O)[C@H](Cc2ccc(O)cc2)NC(=O)CCSSC[C@@H](C(=O)N2CCC[C@H]2C(=O)N[C@@H](CCCCNC(=O)CCCCCCC(=O)NCCCC[C@H](NC(=O)[C@@H]2CCCN2C(=O)[C@@H]2CSSCCC(=O)N[C@@H](Cc3ccc(O)cc3)C(=O)N[C@@H]([C@@H](C)CC)C(=O)N[C@@H](CCC(N)=O)C(=O)N[C@@H](CC(N)=O)C(=O)N2)C(=O)NCC(N)=O)C(=O)NCC(N)=O)NC(=O)[C@H](CC(N)=O)NC(=O)[C@H](CCC(N)=O)NC1=O` (I: [Mpa]YIQNCPKG-NH2 / II: [Mpa]YIQNCPKG-NH2; disulfide I:1-I:6, II:1-II:6; linker I:8-II:8 via Suberoyl)?
A: Emax [1]: -0.11; EC50 (Oxytocin receptor [2]): 0.8 pM; EC50 (Oxytocin receptor [3]): 67.3 nM; KiH [4]: 0.08 pM; KiL [4]: 1.24 nM; Emax [5]: -0.14; EC50 (Oxytocin receptor [6]): 40.5 nM; Ratio [7]: 10; Ratio [8]: 10; Emax [9]: -0.1; EC50 (Oxytocin receptor [10]): 117 nM; Emax [11]: -0.16; EC50 (Oxytocin receptor [12]): 19.3 nM; Emax [13]: -0.15; Activity (Mus musculus [14]): Active; Ratio (Mus musculus [15]): 100; Activity (Danio rerio [16]): Active; Ratio (Danio rerio [17]): 40; EC50 (Oxytocin receptor [18]): 0.0118 nM; EC50 (Oxytocin receptor [19]): 33.4 nM
